{"source": "patent US12642780B2", "about": "“Methods and compositions to treat and prevent viral infections and acute respiratory distress syndrome” (priority 2020, dated 2026)", "type_in_all_cases": "cell-based, mouse", "key": {"[1]": {"system": "BMDM", "test": "Q-PCR quantitation of cytokine mRNAs in LPS-stimulated BMDM", "set-up": "Il6 mRNA induction: dose or concentration left out as unconfirmed", "conditions": "BMDM pretreated with SB202190 or SP600125 for 16 h, LPS", "procedure": "RNA was extracted using AllPrep DNA/RNA Mini kit, and cDNA was synthesized using SuperScript™ VILO™ cDNA Synthesis Kit. mRNA expression was determined by QPCR in a CFX96 thermal cycler (Biorad) as described (Zhong et al., 2016). Data are presented in arbitrary units and calculated by the 2^(−ΔΔCT) method. Primer sequences were obtained from the NIH qPrimerDepot (http://mouseprimerdepot.nci.nih.gov) and provided by Integrated DNA technologies."}, "[2]": {"system": "BMDM", "test": "Cytokine secretion by LPS-stimulated BMDM (ELISA)", "excerpt": "Paired antibodies (capture and detection) and standard recombinant mouse IL-1β (R&D Systems), and TNF and IL-6 (eBioscience) were used to determine mouse cytokine concentrations according to manufacturer's instructions."}, "[3]": {"system": "BMDM", "test": "Mitochondrial function in BMDM (TMRM, MitoSOX, cellular ATP)", "conditions": "for mtROS: metformin treated and ATP-stimulated macrophages, DMNQ 20 μM 16 hrs, MitoParaquat 5 μM 1 hr"}, "[4]": {"system": "NLRP3 inflammasome", "test": "NLRP3 inflammasome activation in LPS-primed BMDM", "conditions": "for restoration of Casp1 activation and IL-1β secretion: metformin treated and ATP-stimulated macrophages, DMNQ 20 μM 16 hrs, MitoParaquat 5 μM 1 hr"}, "[5]": {"system": "mtDNA", "test": "mtDNA synthesis and cytosolic Ox-mtDNA in BMDM", "conditions": "for restoration of cytoplasmic Ox-mtDNA or mtDNA synthesis: metformin treated macrophages, DMNQ 20 μM 16 hrs, MitoParaquat 5 μM 1 hr", "procedure": "To image mtDNA synthesis, BMDM were stimulated with LPS ([…]) for 4 hrs in the presence of 10 μM EdU. Cells were then washed twice with sterile PBS and fixed in 4% PFA for 15 min followed by permeabilization with 0.02% Triton X-100 for 10 min. EdU staining was performed using a Click-iT EdU Microplate Assay Kit (Thermo Fisher Scientific). In brief, BMDMs were postfixed in EdU fixative for 5 min, and equal volumes of the EdU reaction cocktail, which was prepared immediately before use, were added to each chamber and left overnight. Primary antibody against the mitochondrial marker Atp5b was included in the EdU reaction cocktail. The next day, the BMDM were washed three times with PBS followed by incubation with secondary Alexa antibodies from Life Technologies or Jackson Immuno Research Laboratories. DAPI was used for nuclear counterstaining.\nTotal DNA was isolated using Allprep DNA/RNA Mini Kit (catalogue 80204, Qiagen) according to manufacturer's instructions. mtDNA was quantified by qPCR using primers specific for the mitochondrial D-loop region, cytochrome c oxidase (COX) or a specific region of mtDNA that is not inserted into nuclear DNA (non-NUMT) (Zhong et al., 2018). Nuclear DNA encoding Teri, 18S ribosomal RNA and B2m was used for normalization.\nCellular fractionation was performed using Mitochondrial Isolation kit (89874, ThermoScientific) according to manufacturer's instructions. Cytosolic mtDNA was analyzed as described (Nakahira et al., 2011). For the measurement of Ox-mtDNA, mtDNA was first purified using Allprep DNA/RNA mini kit (Qiagen) from the cytosolic fraction of BMDM as described above. The 8-OH-dG content of the mtDNA was then quantified using an 8-OHdG quantification kit (ab201734), per manufacturer's instructions."}}, "data": [{"compound": "Oc1ccc(-c2nc(-c3ccncc3)c(-c3ccc(F)cc3)[nH]2)cc1", "note": "[SB202190]", "values": [{"measurement": "Il6 mRNA induction", "setting": "[1]", "result": "blocked"}, {"measurement": "IL-6 secretion", "setting": "[2]; BMDM pretreated with SB202190 or SP600125 for 16 h, LPS", "result": "blocked"}]}, {"compound": "C[n+]1ccc(-c2cc[n+](CCCCCCCCCC[P+](c3ccccc3)(c3ccccc3)c3ccccc3)cc2)cc1.[I-].[I-].[I-]", "note": "[mitoParaquat]", "values": [{"measurement": "mtROS", "setting": "[3]", "result": "increased"}, {"measurement": "restoration of Casp1 activation and IL-1β secretion", "setting": "[4]", "result": "neither one restored"}, {"measurement": "restoration of cytoplasmic Ox-mtDNA or mtDNA synthesis", "setting": "[5]", "result": "neither parameter was restored"}]}, {"compound": "Cc1nc(-c2nc(-c3ccc(OC(F)(F)F)cc3)no2)nn1Cc1cccc(N2CCC(S(C)(=O)=O)CC2)c1", "note": "[IACS-010759]", "values": [{"measurement": "ROS production", "setting": "[3]; BMDM, IACS-010759 20 μM 16 hrs, MitoSOX", "result": "enhanced"}, {"measurement": "IL-1β production and Casp1 and GSMDM cleavage", "setting": "[4]; LPS-primed macrophages with NLRP3 activators, IACS-010759 20 μM 16 hrs", "result": "inhibited"}, {"measurement": "response to nigericin compared with other activators", "setting": "[4]; LPS-primed macrophages, IACS-010759 20 μM 16 hrs", "result": "not as strongly inhibited"}, {"measurement": "IL-6 secretion", "setting": "[2]; BMDM, IACS-010759 20 μM 16 hrs", "result": "modest inhibition"}, {"measurement": "TNF secretion", "setting": "[2]; BMDM, IACS-010759 20 μM 16 hrs", "result": "no effect"}, {"measurement": "mtDNA synthesis", "setting": "[5]; LPS-primed BMDM, IACS-010759 16 hrs", "result": "inhibited"}]}, {"compound": "COC1=C(OC)C(=O)c2ccccc2C1=O", "note": "[DMNQ, 2,3-dimethoxy-1,4-naphtoquinone]", "values": [{"measurement": "mtROS", "setting": "[3]", "result": "increased"}, {"measurement": "restoration of Casp1 activation and IL-1β secretion", "setting": "[4]", "result": "neither one restored"}, {"measurement": "restoration of cytoplasmic Ox-mtDNA or mtDNA synthesis", "setting": "[5]", "result": "neither parameter was restored"}]}]}
